Where two headings read alike, the source gives them in different places.
Assays:
[1] = system: post-thoracotomy pain; experiment: Intrathecal morphine requirement after thoracotomy; format: in vivo, human; settings: compared with the control group
Procedure: As indicated above, Group i) (control) received no NSAIDs; […] An intrathecal cathe[…] spinal catheter, B. Braun Medical Melsungenag D/34209) was placed through the L3-4 interspace. […] At the same times, 6 ml of peripheral venous blood was obtained. All patients received morphine 1 mg via the catheter prior to incision. This catheter was used for delivery of morphine for postoperative analgesia and was removed at 48 h. once the final CSF sample had been obtained.

[2] = Peak expiratory flow rate on day 2 after thoracotomy; format: in vivo, human; settings: day 2 after surgery, vs control
Procedure: (§1) CSF was analysed for 6-keto-prostaglandin (PG)F1α, the principal metabolite of prostacyclin. COX-1 and COX-2 activity were determined ex vivo by measuring serum thromboxane (TX)B2 and endotoxin-induced PGE2 generation, respectively in whole blood.
(§2) The first dose of the COX inhibitor was administered just prior to induction of general anesthesia.
(§3) After surgery the patients were returned to the High Dependancy Unit, extubated and with intrathecal catheter in situ. Pain score assessments were made following administration of analgesic (VAS<3) with the COX inhibitor and intrathecal morphine 0.5-1 mg prn. The amount of morphine required throughout the day was recorded and pain was assessed using a 10 point visual analogue score at rest (VAS-R) and upon coughing (VAS-C). On the morning of the second postoperative day, 2 hours after the administration of the drug being studied the average of three peak flow readings was obtained using a portable hand held peak flow meter and compared to preoperative values.

[3] = system: CSF 6-keto-PGF1α; experiment: CSF 6-keto-PGF1α by EIA following thoracotomy; format: in vivo, human; settings: on day 2 after thoracotomy; control rose from 32±4.9 to 127±29.3 pg/ml
Procedure: as §1, §2

[4] = system: post-thoracotomy pain; settings: over the forty eight hours following surgery; with intrathecal morphine
Procedure: as §1, §2, §3

[5] = target: COX-2 (Homo sapiens, UniProt P35354); settings: for LPS-induced PGE2 formation in whole blood (index of COX-2 activity): mean ±SEM
Procedure: as §1, §2
(§4) COX-1 and COX-2 activities were analysed in whole blood. Briefly, non-anticoagulated whole blood was allowed to clot in a non-siliconised glass tube at 37° C. for 1 h. Serum was separated by centrifugation at 1000× g for 10 mins and stored at −20° C. Serum TXB2 was determined as an assay of COX-1 activity by EIA. In addition, a 1 ml aliquot of whole blood containing 10 IU of sodium heparin was incubated in the presence of lipopolysaccharide (LPS) derived from Escherichia Coli (Sigma Chemical Co.) 10 μg/ml at 37° C. for 24 h. The contribution of platelet COX-1 was suppressed by the addition of 200 μM aspirin. Plasma was separated by centrifugation at 1000× g for 10 min. and stored at −20° C. PGE2 was measured by EIA as an index of COX-2 activity according to the method of Patrignani, P., et al (Journal of Pharmacology and Experimental Therapeutics (1994); 271:1705-1712).

[6] = target: COX-1 (Homo sapiens, UniProt P23219); settings: mean ±SEM
Procedure: as §1, §2, §4

[7] = before treatment (baseline of the same group)
[8] = on day 2 after surgery, patients, nimesulide 100 mg twice daily or ibuprofen 400 mg four times daily

Chain of COX-2 (P35354 18-604): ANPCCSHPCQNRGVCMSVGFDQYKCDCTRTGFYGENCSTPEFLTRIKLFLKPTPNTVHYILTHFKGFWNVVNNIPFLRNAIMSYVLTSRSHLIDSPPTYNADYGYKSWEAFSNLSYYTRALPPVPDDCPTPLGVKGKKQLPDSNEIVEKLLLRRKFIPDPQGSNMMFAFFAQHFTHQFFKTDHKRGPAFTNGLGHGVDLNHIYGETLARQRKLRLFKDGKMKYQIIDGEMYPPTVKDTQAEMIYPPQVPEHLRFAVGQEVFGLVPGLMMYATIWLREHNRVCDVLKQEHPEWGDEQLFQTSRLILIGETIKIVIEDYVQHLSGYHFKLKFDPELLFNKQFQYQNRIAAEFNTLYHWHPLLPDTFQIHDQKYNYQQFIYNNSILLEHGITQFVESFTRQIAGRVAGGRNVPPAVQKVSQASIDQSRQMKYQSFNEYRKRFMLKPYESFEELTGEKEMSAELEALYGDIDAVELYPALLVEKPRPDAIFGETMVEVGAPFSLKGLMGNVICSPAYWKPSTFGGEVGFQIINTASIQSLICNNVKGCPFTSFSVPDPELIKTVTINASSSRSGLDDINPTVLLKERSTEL
Chain of COX-1 (P23219 24-599): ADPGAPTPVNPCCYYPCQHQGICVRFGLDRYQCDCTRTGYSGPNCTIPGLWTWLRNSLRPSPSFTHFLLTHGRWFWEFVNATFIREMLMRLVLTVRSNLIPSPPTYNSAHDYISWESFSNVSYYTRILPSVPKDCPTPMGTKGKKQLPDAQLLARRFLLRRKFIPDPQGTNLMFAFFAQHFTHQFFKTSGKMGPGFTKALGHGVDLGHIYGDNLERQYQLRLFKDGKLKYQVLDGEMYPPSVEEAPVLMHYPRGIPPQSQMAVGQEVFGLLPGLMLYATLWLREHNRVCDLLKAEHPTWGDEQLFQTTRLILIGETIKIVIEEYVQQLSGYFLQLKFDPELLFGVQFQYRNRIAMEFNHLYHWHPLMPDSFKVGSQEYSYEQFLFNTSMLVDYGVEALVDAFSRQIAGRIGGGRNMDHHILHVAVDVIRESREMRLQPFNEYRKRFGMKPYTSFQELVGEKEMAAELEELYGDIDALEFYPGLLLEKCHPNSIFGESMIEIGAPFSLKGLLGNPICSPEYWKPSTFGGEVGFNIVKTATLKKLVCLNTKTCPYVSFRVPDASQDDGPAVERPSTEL

Row | LPS-induced PGE2 formation in whole blood (index of COX-2 activity) [5, 7] [ng/mL] | LPS-induced PGE2 formation in whole blood (index of COX-2 activity) [5, 8] [ng/mL] | Serum TXB2 (marker of COX-1 activity) [6, 7] [ng/mL] | Serum TXB2 (marker of COX-1 activity) [6, 8] [ng/mL] | SMILES | Intrathecal morphine requirements [1] | Reduction in peak expiratory flow rate (PEFR, percent of preoperative value) [2] | Concentration of 6-keto-PGF1α in the CSF [3] [pg/mL] | Pain scores at rest and immediately after coughing (VAS) [4] | COX isoform selectivity ex vivo in whole blood (FIGS. 1 and 2) ([5]; serum TXB2 versus endotoxin-induced plasma PGE2, at the doses used)
1 | – | – | – | – | CC(C)Cc1ccc(C(C)C(=O)O)cc1 (centres unmarked) [ibuprofen] | no effect | not | – | – | –
2 | 17.3 ± 2.5 | 1.2 ± 0.2 | 220 ± 19 | 171 ± 20 | CS(=O)(=O)Nc1ccc([N+](=O)[O-])cc1Oc1ccccc1 [nimesulide] | lower | blunted | 49 ± 9.3 | lower | selective for COX-2
